# Biological target: T1, IGF-1R (Homo sapiens, UniProt P08069)
# T1 construct: expressed in transfected cells
# Experiment: Example B-2: IGF-1R Assay (PathHunter cell lines, EC80 agonist challenge, chemiluminescent detection)
# Type: cell-based
# Details: PathHunter cells, compound 60 minutes at 37° C., EC80 agonist 3 hours; read-out: IC50, Biological Activity against IGF-1R (Table B2)
# Procedure: PathHunter cell lines were expanded from freezer stocks according to standard procedures. Cells were seeded in a total volume of 20 μL into white walled, 384-well microplates and incubated for the appropriate time prior to testing.
# Cells are pre-incubated with compound followed by EC80 agonist challenge as follows: • R. 1. Intermediate dilution of sample stocks was performed to generate 5× sample in assay buffer. • 2. 5 μL of 5× sample was added to cells and incubated at 37° C. for 60 minutes. Vehicle concentration was 1%. • 3. 5 IL of 6× EC80 agonist in assay buffer was added to the cells and incubated at room temperature for 3 hours.
# Assay signal was generated through a single addition of 12.5 or 15 μL (50% v/v) of PathHunter Detection reagent cocktail for agonist and antagonist assays respectively, followed by a one hour incubation at room temperature. Microplates were read following signal generation with a PerkinElmer Envision™ instrument for chemilumine-scent signal detection.
# Compound activity was analyzed using CBIS data analysis suite (ChemInnovation, CA). Percentage inhibition was calculated using the following formula: % Inhibition=100%×(1−(mean RLU of test sample−mean RLU of vehicle control)/(mean RLU of EC80 control−mean RLU of vehicle control)). The activity for representative examples of the invention is shown in the following table, wherein A: IC50≤500 nM; B: 500 nM<IC50≤2 μM; C: 2 μM<IC50≤10 μM; D: IC50>10 μM.
# T1 sequence (P08069 31-1367): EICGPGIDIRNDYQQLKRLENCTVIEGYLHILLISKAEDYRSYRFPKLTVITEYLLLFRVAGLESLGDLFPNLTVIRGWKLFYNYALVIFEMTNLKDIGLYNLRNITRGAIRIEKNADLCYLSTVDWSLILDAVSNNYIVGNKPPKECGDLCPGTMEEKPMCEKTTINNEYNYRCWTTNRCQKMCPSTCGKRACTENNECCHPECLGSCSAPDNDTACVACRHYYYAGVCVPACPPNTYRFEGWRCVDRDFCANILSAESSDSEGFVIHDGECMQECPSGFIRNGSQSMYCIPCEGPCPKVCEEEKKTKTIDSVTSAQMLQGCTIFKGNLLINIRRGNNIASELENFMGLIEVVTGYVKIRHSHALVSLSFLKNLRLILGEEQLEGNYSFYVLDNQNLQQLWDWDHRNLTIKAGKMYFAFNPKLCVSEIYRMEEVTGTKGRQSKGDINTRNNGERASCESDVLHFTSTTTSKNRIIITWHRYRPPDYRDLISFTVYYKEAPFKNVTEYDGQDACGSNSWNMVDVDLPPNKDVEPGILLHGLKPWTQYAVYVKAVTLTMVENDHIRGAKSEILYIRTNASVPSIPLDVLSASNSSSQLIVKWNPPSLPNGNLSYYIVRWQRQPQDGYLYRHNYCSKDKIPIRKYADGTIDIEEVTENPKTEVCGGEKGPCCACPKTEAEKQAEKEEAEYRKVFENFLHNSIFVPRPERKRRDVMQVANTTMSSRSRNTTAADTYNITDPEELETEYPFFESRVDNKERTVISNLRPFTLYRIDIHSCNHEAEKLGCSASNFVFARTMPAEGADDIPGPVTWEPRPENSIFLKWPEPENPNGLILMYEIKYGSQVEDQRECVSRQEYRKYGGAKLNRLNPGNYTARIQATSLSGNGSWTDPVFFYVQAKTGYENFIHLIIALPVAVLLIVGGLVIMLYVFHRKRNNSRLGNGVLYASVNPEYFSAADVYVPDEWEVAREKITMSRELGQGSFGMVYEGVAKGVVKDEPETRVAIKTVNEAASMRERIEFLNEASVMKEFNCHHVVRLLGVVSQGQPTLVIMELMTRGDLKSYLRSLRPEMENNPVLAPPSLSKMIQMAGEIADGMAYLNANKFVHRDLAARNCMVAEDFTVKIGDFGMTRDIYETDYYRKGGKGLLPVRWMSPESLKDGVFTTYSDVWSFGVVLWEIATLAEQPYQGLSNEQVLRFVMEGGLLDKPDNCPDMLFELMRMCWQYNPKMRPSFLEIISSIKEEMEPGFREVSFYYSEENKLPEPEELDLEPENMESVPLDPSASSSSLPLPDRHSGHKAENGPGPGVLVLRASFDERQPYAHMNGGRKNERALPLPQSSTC
row,IC50,SMILES
1,≤ 500 nM,"CC1(C)C(=O)N(c2ccc(C(C)(C)C(F)(F)F)cc2)C(=O)N1Cc1ccnc2c1CC(=O)N2 [Compound 57, 5,5-dimethyl-1-((2-oxo-2,3-dihydro-1H-pyrrolo[2,3-b]pyridin-4-yl)methyl)-3-(4-(1,1,1-trifluoro-2-methylpropan-2-yl)phenyl)imidazolidine-2,4-dione]"
2,≤ 500 nM,"CC1(C)C(=O)N(c2ccc(C3(C(F)(F)F)CC3)cc2)C(=O)N1Cc1ccnc2c1OCC1(CC1)N2 [Compound 58, 1-((2′H,4′H-spiro[cyclopropane-1,3′-pyrido[3,2-b][1,4]oxazin]-8′-yl)methyl)-5,5-dimethyl-3-(4-(1-(trifluoromethyl)cyclopropyl)phenyl) imidazolidine-2,4-dione]"
3,≤ 500 nM,"CC1(C)C(=O)N(c2ccc(C3(C(F)(F)F)CCC3)cc2F)C(=O)N1Cc1ccnc2c1CC(=O)N2 [Compound 59, 3-(2-fluoro-4-(1-(trifluoromethyl)cyclobutyl)phenyl)-5,5-dimethyl-1-((2-oxo-2,3-dihydro-1H-pyrrolo[2,3-b]pyridin-4-yl)methyl)imidazolidine-2,4-dione]"
4,≤ 500 nM,"C[C@@H]1COc2c(CN3C(=O)N(c4ccc(S(=O)(=O)C(F)(F)F)cc4)C(=O)C3(C)C)ccnc2N1 [Compound 60, (R)-5,5-dimethyl-1-((3-methyl-3,4-dihydro-2H-pyrido[3,2-b][1,4]oxazin-8-yl)methyl)-3-(4-((trifluoromethyl)sulfonyl)phenyl) imidazolidine-2,4-dione]"
5,≤ 500 nM,"CC1(C)C(=O)N(c2ccc(C3(C#N)CC3(C)C)cc2)C(=O)N1Cc1ccnc2c1CC(=O)N2 (stereo not shown) [Compound 61, 1-(4-(4,4-dimethyl-2,5-dioxo-3-((2-oxo-2,3-dihydro-1H-pyrrolo[2,3-b]pyridin-4-yl)methyl)imidazolidin-1-yl)phenyl)-2,2-dimethylcyclopropane-1-carbonitrile]"
6,> 10000 nM,"CC1(C)C(=O)N(c2ccc(S(C)(=O)=O)cc2)C(=O)N1Cc1ccnc2c1CC(=O)N2 [Compound 62, 5,5-dimethyl-3-(4-(methylsulfonyl)phenyl)-1-((2-oxo-2,3-dihydro-1H-pyrrolo[2,3-b]pyridin-4-yl)methyl)imidazolidine-2,4-dione]"
7,500 to 2000 nM,"CC1(C)C(=O)N(c2ccc(S(=O)(=O)C(F)F)cc2)C(=O)N1Cc1ccnc2c1CC(=O)N2 [Compound 63, 3-(4-((difluoromethyl)sulfonyl)phenyl)-5,5-dimethyl-1-((2-oxo-2,3-dihydro-1H-pyrrolo[2,3-b]pyridin-4-yl)methyl)imidazolidine-2,4-dione]"
8,500 to 2000 nM,"CC1(C)C(=O)N(c2ccc(C3(C#N)CC3)cc2)C(=O)N1Cc1ccnc2c1CC(=O)N2 [Compound 64, 1-(4-(4,4-dimethyl-2,5-dioxo-3-((2-oxo-2,3-dihydro-1H-pyrrolo[2,3-b]pyridin-4-yl)methyl)imidazolidin-1-yl)phenyl)cyclopropane-1-carbonitrile]"
9,> 10000 nM,"CN1C(=O)Cc2c(CN3C(=O)N(c4ccc(C5(C#N)CCC5)cc4)C(=O)C3(C)C)ccnc21 [Compound 65, 1-(4-(4,4-dimethyl-3-((1-methyl-2-oxo-2,3-dihydro-1H-pyrrolo[2,3-b]pyridin-4-yl)methyl)-2,5-dioxoimidazolidin-1-yl)phenyl)cyclobutane-1-carbonitrile]"
10,> 10000 nM,"CC1(C)C(=O)N(c2ccc3c(c2)N(S(C)(=O)=O)CC3)C(=O)N1Cc1ccnc2c1CC(=O)N2 [Compound 67, 5,5-dimethyl-3-(1-(methylsulfonyl)indolin-6-yl)-1-((2-oxo-2,3-dihydro-1H-pyrrolo [2,3-b]pyridin-4-yl)methyl)imidazolidine-2,4-dione]"
11,500 to 2000 nM,"CC(C)c1ccc(N2C(=O)N(Cc3ccnc4c3CC(=O)N4)C(C)(C)C2=O)cc1C#N [Compound 68, 5-(4,4-dimethyl-2,5-dioxo-3-((2-oxo-2,3-dihydro-1H-pyrrolo[2,3-b]pyridin-4-yl)methyl)imidazolidin-1-yl)-2-isopropylbenzonitrile]"
12,≤ 500 nM,"CC1(C)C(=O)N(c2ccc(C3(C#N)CC34CC4)cc2)C(=O)N1Cc1ccnc2c1CC(=O)N2 (stereo not shown) [Compound 69, 1-(4-(4,4-dimethyl-2,5-dioxo-3-((2-oxo-2,3-dihydro-1H-pyrrolo[2,3-b]pyridin-4-yl)methyl)imidazolidin-1-yl)phenyl)spiro[2.2]pentane-1-carbonitrile]"
13,2000 to 10000 nM,"CC1(C)C(=O)N(c2ccc3c(c2)OC(F)(F)C32CC2)C(=O)N1Cc1ccnc2c1CC(=O)N2 [Compound 70, 3-(2,2-difluoro-2H-spiro[benzofuran-3,1′-cyclopropan]-6-yl)-5,5-dimethyl-1-((2-oxo-2,3-dihydro-1H-pyrrolo[2,3-b]pyridin-4-yl)methyl)imidazolidine-2,4-dione]"

# The next lines start with the compound.
row,SMILES,IC50
1,"CC1(C)C(=O)N(c2ccc3c(c2)N(C(=O)C2CC2)CC32CC2)C(=O)N1Cc1ccnc2c1CC(=O)N2 [Compound 46, 3-(1′-(cyclopropanecarbonyl)spiro[cyclopropane-1,3′-indolin]-6′-yl)-5,5-dimethyl-1-((2-oxo-2,3-dihydro-1H-pyrrolo[2,3-b]pyridin-4-yl)methyl)imidazolidine-2,4-dione]",≤ 500 nM
2,"Cn1nc(C(C)(C)C)c(Br)c1N1C(=O)N(Cc2ccnc3c2CC(=O)N3)C(C)(C)C1=O [Compound 47, 3-(4-bromo-3-(tert-butyl)-1-methyl-1H-pyrazol-5-yl)-5,5-dimethyl-1-((2-oxo-2,3-dihydro-1H-pyrrolo[2,3-b]pyridin-4-yl)methyl)imidazolidine-2,4-dione]",2000 to 10000 nM
3,"CC1(c2ccc(N3C(=O)N(Cc4ccnc5c4CC(=O)N5)C(C)(C)C3=O)cc2)CC1 [Compound 48, 5,5-dimethyl-3-(4-(1-methylcyclopropyl)phenyl)-1-((2-oxo-2,3-dihydro-1H-pyrrolo[2,3-b]pyridin-4-yl)methyl)imidazolidine-2,4-dione]",≤ 500 nM
4,"CC1(C)C(=O)N(c2ccc(C(C)(C)C(F)(F)F)cc2)C(=O)N1Cc1ccnc2c1C(F)(F)C(=O)N2 [Compound 49, 1-((3,3-difluoro-2-oxo-2,3-dihydro-1H-pyrrolo[2,3-b]pyridin-4-yl)methyl)-5,5-dimethyl-3-(4-(1,1,1-trifluoro-2-methylpropan-2-yl)phenyl)imidazolidine-2,4-dione]",≤ 500 nM
5,"CC(C)Cc1cn(S(C)(=O)=O)c2cc(N3C(=O)N(Cc4ccnc5c4CC(=O)N5)C(C)(C)C3=O)ccc12 [Compound 50, 3-(3-isobutyl-1-(methylsulfonyl)-1H-indol-6-yl)-5,5-dimethyl-1-((2-oxo-2,3-dihydro-1H-pyrrolo[2,3-b]pyridin-4-yl)methyl)imidazolidine-2,4-dione]",≤ 500 nM
6,"CC1(C)C(=O)N(c2ccc3c(c2)OCC32CCC2)C(=O)N1Cc1ccnc2c1CC(=O)N2 [Compound 51, 5,5-dimethyl-1-((2-oxo-2,3-dihydro-1H-pyrrolo[2,3-b]pyridin-4-yl)methyl)-3-(2H-spiro[benzofuran-3,1′-cyclobutan]-6-yl)imidazolidine-2,4-dione]",≤ 500 nM
7,"CC1(C)C(=O)N(c2cc3c(cc2Br)C2(CCC2)CO3)C(=O)N1Cc1ccnc2c1CC(=O)N2 [Compound 52, 3-(5-bromo-2H-spiro[benzofuran-3,1′-cyclobutan]-6-yl)-5,5-dimethyl-1-((2-oxo-2,3-dihydro-1H-pyrrolo[2,3-b]pyridin-4-yl)methyl)imidazolidine-2,4-dione]",≤ 500 nM
8,"CC1(C)COc2cc(N3C(=O)N(Cc4ccnc5c4CC(=O)N5)C(C)(C)C3=O)c(Br)cc21 [Compound 53, 3-(5-bromo-3,3-dimethyl-2,3-dihydrobenzofuran-6-yl)-5,5-dimethyl-1-((2-oxo-2,3-dihydro-1H-pyrrolo[2,3-b]pyridin-4-yl)methyl)imidazolidine-2,4-dione]",500 to 2000 nM
9,"CN(C)CC(=O)Nc1cc(N2C(=O)N(Cc3ccnc4c3CC(=O)N4)C(C)(C)C2=O)ccc1OC(F)(F)F [Compound 54, N-(5-(4,4-dimethyl-2,5-dioxo-3-((2-oxo-2,3-dihydro-1H-pyrrolo[2,3-b]pyridin-4-yl)methyl)imidazolidin-1-yl)-2-(trifluoromethoxy)phenyl)-2-(dimethylamino)acetamide]",≤ 500 nM
10,"CC1CCc2c(CN3C(=O)N(c4ccc(C5(C(F)(F)F)CC5)cc4)C(=O)C3(C)C)ccnc2N1 (stereo not shown) [Compound 55, 5,5-dimethyl-1-((7-methyl-5,6,7,8-tetrahydro-1,8-naphthyridin-4-yl)methyl)-3-(4-(1-(trifluoromethyl)cyclopropyl)phenyl) imidazolidine-2,4-dione]",≤ 500 nM
11,"CC1(C)C(=O)N(c2ccc(C3(C(F)(F)F)CC3)cc2)C(=O)N1Cc1ccnc2c1OC[C@@H](CC#N)N2 [Compound 56, (R)-2-(8-((5,5-dimethyl-2,4-dioxo-3-(4-(1-(trifluoromethyl)cyclopropyl)phenyl)imidazolidin-1-yl)methyl)-3,4-dihydro-2H-pyrido[3,2-b][1,4]oxazin-3-yl) acetonitrile]",≤ 500 nM
12,"CC1(C)C(=O)N(c2ccc(C(F)(F)F)c(C#N)c2)C(=O)N1Cc1ccnc2c1CC(=O)N2 [Compound 66, 5-(4,4-dimethyl-2,5-dioxo-3-((2-oxo-2,3-dihydro-1H-pyrrolo[2,3-b]pyridin-4-yl)methyl)imidazolidin-1-yl)-2-(trifluoromethyl)benzonitrile]",> 10000 nM
